Test results: paper PMC6161288, “Bioavailability of Eurycomanone in Its Pure Form and in a Standardised Eurycoma longifolia Water Extract” (Pharmaceutics, 2018)
Structures can show the parent of a compound that is named as a salt.

What was measured:
[1] = Lipophilicity, shake flask method with octanol and buffer (pH 7.4); assay type: physicochemical; details: pH 7.4
Method: The lipophilicity of eurycomanone was estimated using the shake flask method with octanol and buffer (pH 7.4). Eurycomanone (5 µL) at 5 mM concentration is added to octanol (495 µL) and DMSO (495 µL) and also into the aqueous and octanol phase in a 1:1 ratio ([…] of octanol phase and 247.5 µL of aqueous phase). The octanol and aqueous phases were prepared using a saturation process, where equal amounts of D-PBS (pH 7.4) and octanol were saturated (300 rpm, room temperature) for 24 h before being separated and kept at room temperature. The prepared mixtures were vortexed and kept on the shaker (300 rpm) at room temperature for 16 h. The mixtures were allowed to stand for 30 min, and 200 µL of solution was transferred and sent for HPLC analysis.

[2] = Caco-2 cell permeability assay; assay type: in vitro ADME; details: human, Caco-2, Efflux Ratio
Method: The Caco-2 assay was carried out after seeding the cells onto the membrane to form a confluent monolayer in 21 days. The media is removed from apical (A) and basolateral (B) chambers and the membrane is washed with HBSS buffer. Eurycomanone (10 µM, 200 µL) was added to the A compartment (which represents the intestinal lumen), and buffer (300 µL) was added to the B compartment (representing the blood), and vice versa. The plate was kept in a shaking incubator (37 °C) for 1 h. The amount of eurycomanone that had permeated across the cells was measured by LC-MS/MS, and the apparent permeability (Papp) values and efflux ratio were calculated. The expression of P-glycoprotein (P-gp) by differentiated Caco-2 cells was confirmed by measuring the Papp value and efflux ratio of vinblastine with and without the presence of a competing P-gp substrate, cyclosporine A. Eurycomanone was also measured with the presence of cyclosporine A to investigate whether eurycomanone may be transported via P-gp transporters.

[3] = Aqueous solubility; assay type: physicochemical
Method: The aqueous […] was estimated by adding 10 µL of eurycomanone stock solution (10 mM) to 490 µL of aqueous buffer at pH 5.4, pH 7.4 and DMSO in triplicates in deep-well plates. […] The plate was kept on a shaker (300 rpm) at room temperature for 16 h. The plate was then centrifuged at 25 °C, 4000 rpm for 25 min. The supernatant was transferred and analysed using LC-MS/MS.
Peak area 1 = peak area of the compound in 2% DMSO at the different pH levels.
Peak area 2 = peak area of the compound in 100% DMSO.

Row | Structure (SMILES) | logD at 16 h [1] | efflux ratio at 1 h, 10 µM [2] | Aqueous solubility ([3]; pH 5.4) | Aqueous solubility ([3]; pH 7.4)
1 | CC/C(=C(/CC)c1ccc(O)cc1)c1ccc(O)cc1 [diethylstilbestrol] | 3.18 | – | – | –
2 | CC[C@]1(O)C[C@@H]2CN(CCc3c([nH]c4ccccc34)[C@@](C(=O)OC)(c3cc4c(cc3OC)N(C)[C@H]3[C@@](O)(C(=O)OC)[C@H](OC(C)=O)[C@]5(CC)C=CCN6CC[C@]43[C@@H]65)C2)C1 [Vinblastine, vinblastine, reference compound] | – | 14.7 | – | –
3 | C[C@]12CC[C@@H]3c4ccc(O)cc4CC[C@H]3[C@@H]1C[C@@H](O)[C@@H]2O [Estriol, estriol, reference compound] | 2.82 | – | moderate solubility | moderate solubility
4 | COCCc1ccc(OCC(O)CNC(C)C)cc1 (stereo not drawn) [metoprolol, metoprolol tartrate] | -0.29 | – | – | –
